Experimental findings from US20230091047A1 (priority 2019, published 2023) are described below.

For data set [1], the system named is HBV (HepG2.117 cell line, inducibly HBV producing). Nature of the data set: Anti-HBV activity: intracellular HBV DNA by real-time PCR in HepG2.117 cells after 3 days of treatment. It is filed as cell-based, hepatitis B virus. On the procedure: The anti HBV activity was measured using the HepG2.117 cell line, a stable, inducibly HBV producing cell line, which replicates HBV in the absence of doxycycline (Tet-off system). The HepG2 cell line is available from ATCCR under number HB-8065. Transfection of the HepG2 cell line can be as described in Sun and Nassal 2006 Journal of Hepatology 45 (2006) 636-645 “Stable HepG2- and Huh7-based human hepatoma cell lines for efficient regulated expression of infectious hepatitis B virus”.
For the antiviral assay, HBV replication was induced, followed by a treatment with serially diluted compound in 96-well plates. After 3 days of treatment, the antiviral activity was determined by quantification of intracellular HBV DNA using real-time PCR and an HBV specific primer set and probe.
(Real-time PCR tracks product formation cycle by cycle.)

Data set [2] is described as follows: in vitro. Particulars: human, HepG2 or HepG2.117 cells, ATPlite, mean value. It is filed as cell-based. On the procedure:
Cytotoxicity of the compounds was tested using HepG2 or HepG2.117 cells, incubated for 3 or 4 days in the presence of compounds. The viability of the cells was assessed using the PERKIN ELMER ATPlite Luminescence Assay System.”
(In general: In ATP-based viability assays light output follows the ATP content of the culture.)

The mark [3] stands for this setting: Hepatitis B virus, HepG2.117, 72 h, HepG2.117 cells, 3 days of treatment, intracellular HBV DNA by real-time PCR; mean value; read-out: EC50 (μM, mean value).
The mark [4] stands for this setting: 3-days incubation (unmarked values).
Where [5] appears, read: Hepatitis B virus, HepG2.117, 72 h, HepG2.117 cells, intracellular HBV DNA by real-time PCR, 3 days of treatment, mean value; read-out: EC50 (μM, mean value).
Setting [6] is: 3-days incubation (not marked with *).

Read-outs that look alike come from different tables or passages of the source.

As for `C#C[C@@H]1CCCN1c1nc2c(c(=O)n1-c1ccc(C(=O)NC)cc1)C[C@@H](C)N(C(=O)c1ccc(Cl)c(Cl)c1)C2` (single isomer, unassigned) [Compound C351, 4-[(6R)-7-(3,4-dichlorobenzoyl)-2-[(2*S)-2-ethynylpyrrolidin-1-yl]-6-methyl-4-oxo-5,6,7,8-tetrahydropyrido[3,4-d]pyrimidin-3(4H)-yl]-N-methylbenzamide], in data set [1] (setting [3]), the EC50 (commonly the concentration that produces a half-maximal response) amounted to 0.2 µM. Besides, in data set [2] (setting [4]), the CC50 (commonly the concentration that lowers cell viability or growth by half) at 3 days is greater than 50 µM.

As for `CNC(=O)c1ccc(-n2c(N3CCC[C@@H]3C3CC3)nc3c(c2=O)C[C@@H](C)N(C(=O)c2ccc(Cl)c(Cl)c2)C3)cc1` (single isomer, unassigned) [Compound C352, 4-[(6R)-2-[(2*R)-2-cyclopropylpyrrolidin-1-yl]-7-(3,4-dichlorobenzoyl)-6-methyl-4-oxo-5,6,7,8-tetrahydropyrido[3,4-d]pyrimidin-3(4H)-yl]-N-methylbenzamide], in data set [1] (setting [3]), the EC50 worked out at 0.29 µM. In data set [2] (setting [4]), it took 27.5 µM to reach half-maximal cytotoxicity (CC50 at 3 days).

As for `CNC(=O)c1ccc(-n2c(N3CCC[C@H]3C3CC3)nc3c(c2=O)C[C@@H](C)N(C(=O)c2ccc(Cl)c(Cl)c2)C3)cc1` (single isomer, unassigned) [Compound C353, 4-[(6R)-2-[(2*S)-2-cyclopropylpyrrolidin-1-yl]-7-(3,4-dichlorobenzoyl)-6-methyl-4-oxo-5,6,7,8-tetrahydropyrido[3,4-d]pyrimidin-3(4H)-yl]-N-methylbenzamide], the EC50 in data set [1] (setting [3]) turned out to be 0.11 µM. Also, the midpoint of cytotoxicity in data set [2] (setting [4]), the CC50 at 3 days, lay at 19.5 µM.

On to `CNC(=O)c1ccc(-n2c(N[C@H](C)c3ccnn3C)nc3c(c2=O)C[C@@H](C)N(C(=O)c2ccc(Cl)c(Cl)c2)C3)cc1` (single isomer, unassigned) [Compound C372a], for which the EC50 in data set [1] (setting [3]) was 5.42 µM. The CC50 at 3 days in data set [2] (setting [4]) is greater than 50 µM.

With `CNC(=O)c1ccc(-n2c(N[C@@H](C)c3ccnn3C)nc3c(c2=O)C[C@@H](C)N(C(=O)c2ccc(Cl)c(Cl)c2)C3)cc1` (single isomer, unassigned) [Compound C372b], the EC50 in data set [1] (setting [3]) is 2.54 µM. In data set [2] (setting [4]), this molecule returned a CC50 at 3 days greater than 50 µM.

With `CNC(=O)c1ccc(-n2c(N[C@H](C)c3ccncc3)nc3c(c2=O)C[C@@H](C)N(C(=O)c2ccc(Cl)c(Cl)c2)C3)cc1` (single isomer, unassigned) [Compound C375a], in data set [1] (setting [3]), the EC50 was 3.19 µM. The CC50 at 3 days in data set [2] (setting [4]) is greater than 50 µM.

On to `CNC(=O)c1ccc(-n2c(N[C@@H](C)c3ccncc3)nc3c(c2=O)C[C@@H](C)N(C(=O)c2ccc(Cl)c(Cl)c2)C3)cc1` (single isomer, unassigned) [Compound C375b], for which the EC50 in data set [1] (setting [3]) was determined as 0.62 µM. Moreover, the CC50 at 3 days in data set [2] (setting [4]) is greater than 50 µM.

Take `CNC(=O)c1ccc(-n2c(N[C@H](C)c3cccnc3)nc3c(c2=O)C[C@@H](C)N(C(=O)c2ccc(Cl)c(Cl)c2)C3)cc1` (single isomer, unassigned) [Compound C377a]: in data set [1] (setting [5]), the EC50 came out at 0.82 µM. The molecule further had a CC50 at 3 days in data set [2] (setting [6]) greater than 50 µM.

As for `CNC(=O)c1ccc(-n2c(N[C@@H](C)c3cccnc3)nc3c(c2=O)C[C@@H](C)N(C(=O)c2ccc(Cl)c(Cl)c2)C3)cc1` (single isomer, unassigned) [Compound C377b], in data set [1] (setting [3]), the EC50 was 3.95 µM. In data set [2] (setting [4]), the CC50 at 3 days was greater than 50 µM.

Turning to `CCc1cc(C(=O)NC)ccc1-n1c(NC(C)C)nc2c(c1=O)C[C@@H](C)N(C(=O)c1ccc(Cl)c(Cl)c1)C2` (single isomer, unassigned) [Compound C383a], the EC50 in data set [1] (setting [5]) was determined as 0.32 µM. In data set [2] (setting [6]), this molecule had a CC50 at 3 days greater than 50 µM.

For the molecule `CNC(=O)c1ccc(-n2c(N[C@@H](C)c3ccccc3)nc3c(c2=O)C[C@@H](C)N(C(=O)c2ccc(Cl)c(Cl)c2)C3)c(Cl)c1` (single isomer, unassigned) [Compound C386a], the EC50 in data set [1] (setting [5]) is 0.08 µM. In data set [2] (setting [6]), this molecule had a CC50 at 3 days greater than 50 µM.

Take `CNC(=O)c1ccc(-n2c(N[C@@H](C)C3CC3)nc3c(c2=O)C[C@@H](C)N(C(=O)c2ccc(Cl)c(Cl)c2)C3)c(Cl)c1` (single isomer, unassigned) [Compound C387a]: the EC50 in data set [1] (setting [5]) worked out at 0.05 µM. This molecule also displayed a half-maximal cytotoxic concentration (CC50) at 3 days in data set [2] (setting [6]) greater than 50 µM.

As to `CC(C)Nc1nc2c(c(=O)n1-c1ccc(-c3nccn3C)cc1Cl)C[C@@H](C)N(C(=O)c1ccc(Cl)c(Cl)c1)C2` (single isomer, unassigned) [Compound C392a], the EC50 in data set [1] (setting [5]) was 0.16 µM. For the same molecule, it took 22.7 µM to reach half-maximal cytotoxicity in data set [2] (setting [6]) (CC50 at 3 days).

With `CNC(=O)c1ccc(-n2c(N[C@H](C)c3cccc(OC)c3)nc3c(c2=O)C[C@@H](C)N(C(=O)c2ccc(Cl)c(Cl)c2)C3)cc1` (single isomer, unassigned) [Compound C394a], the EC50 in data set [1] (setting [5]) is 32.5 µM. In data set [2] (setting [6]), this molecule yielded a CC50 at 3 days greater than 50 µM.

On to `CNC(=O)c1ccc(-n2c(N[C@@H](C)c3cccc(OC)c3)nc3c(c2=O)C[C@@H](C)N(C(=O)c2ccc(Cl)c(Cl)c2)C3)cc1` (single isomer, unassigned) [Compound C394b], for which, in data set [1] (setting [5]), the EC50 came to 0.15 µM. In data set [2] (setting [6]), this molecule returned a CC50 at 3 days of 29 µM.

In the case of `CNC(=O)c1ccc(-n2c(N3CCC[C@@H]3c3ccccc3)nc3c(c2=O)C[C@@H](C)N(C(=O)c2ccc(Cl)c(Cl)c2)C3)cc1` (single isomer, unassigned) [Compound C401a], the EC50 in data set [1] (setting [5]) came out at 0.36 µM. The molecule also displayed a CC50 at 3 days in data set [2] (setting [6]) of 13.8 µM.

In the case of `CNC(=O)c1ccc(-n2c(N3CCC[C@H]3c3ccccc3)nc3c(c2=O)C[C@@H](C)N(C(=O)c2ccc(Cl)c(Cl)c2)C3)cc1` (single isomer, unassigned) [Compound C401b], the EC50 in data set [1] (setting [5]) came to 0.83 µM. Also, in data set [2] (setting [6]), the CC50 at 3 days worked out at 18.2 µM.

As to `CNC(=O)c1ccc(-n2c(N[C@H](C)c3ccccc3OC)nc3c(c2=O)C[C@@H](C)N(C(=O)c2ccc(Cl)c(Cl)c2)C3)cc1` (single isomer, unassigned) [Compound C402a], the EC50 in data set [1] (setting [5]) was 0.32 µM. The half-maximal cytotoxic concentration (CC50) at 3 days in data set [2] (setting [6]) amounted to 13.8 µM.

In the case of `CNC(=O)c1ccc(-n2c(N[C@@H](C)c3ccccc3OC)nc3c(c2=O)C[C@@H](C)N(C(=O)c2ccc(Cl)c(Cl)c2)C3)cc1` (single isomer, unassigned) [Compound C402b], the concentration for a half-maximal effect (EC50) in data set [1] (setting [5]) came to 0.08 µM. This molecule yielded a cytotoxic concentration (CC50) at 3 days in data set [2] (setting [6]) of 18.8 µM.

In the case of `CNC(=O)c1ccc(-n2c(N[C@H](C)C3CCC3)nc3c(c2=O)C[C@@H](C)N(C(=O)c2ccc(Cl)c(Cl)c2)C3)cc1` (single isomer, unassigned) [Compound C406a], in data set [1] (setting [5]), the EC50 was found to be 0.18 µM. This molecule yielded a cytotoxic concentration (CC50) at 3 days in data set [2] (setting [6]) of 31.3 µM.

Consider `CNC(=O)c1ccc(-n2c(N[C@@H](C)C3CCC3)nc3c(c2=O)C[C@@H](C)N(C(=O)c2ccc(Cl)c(Cl)c2)C3)cc1` (single isomer, unassigned) [Compound C406b], for which the EC50 in data set [1] (setting [5]) turned out to be 0.16 µM. The molecule also yielded a CC50 at 3 days in data set [2] (setting [6]) of 24.5 µM.

As to `COc1ccc([C@H](C)Nc2nc3c(c(=O)n2-c2ccc(NC(C)=O)cc2)C[C@@H](C)N(C(=O)c2ccc(Cl)c(Cl)c2)C3)cc1` (single isomer, unassigned) [Compound C410b], the EC50 in data set [1] (HepG2.117 cells, intracellular HBV DNA by real-time PCR, 3 days of treatment, mean value; read-out: EC50 (μM, mean value)) was 0.11 µM. In addition, the CC50 at 3 days in data set [2] (setting [6]) was greater than 50 µM.

For the molecule `CNC(=O)c1ccc(-n2c(N[C@H](C)c3ccc(S(C)(=O)=O)cc3)nc3c(c2=O)C[C@@H](C)N(C(=O)c2ccc(Cl)c(Cl)c2)C3)cc1` (single isomer, unassigned) [Compound C412a], the EC50 in data set [1] (setting [5]) is 0.94 µM. The molecule also yielded a CC50 at 3 days in data set [2] (setting [6]) greater than 50 µM.

As for `CNC(=O)c1ccc(-n2c(N[C@@H](C)c3ccc(S(C)(=O)=O)cc3)nc3c(c2=O)C[C@@H](C)N(C(=O)c2ccc(Cl)c(Cl)c2)C3)cc1` (single isomer, unassigned) [Compound C412b], the EC50 in data set [1] (setting [5]) was greater than 10 µM. In data set [2] (setting [6]), this molecule displayed a CC50 at 3 days greater than 50 µM.

Take `CNC(=O)c1ccc(-n2c(N[C@H](C)c3ccc(C(F)(F)F)cc3)nc3c(c2=O)C[C@@H](C)N(C(=O)c2ccc(Cl)c(Cl)c2)C3)cc1` (single isomer, unassigned) [Compound C413a]: the EC50 in data set [1] (setting [5]) came out at 0.06 µM. The molecule also showed a CC50 at 3 days in data set [2] (setting [6]) of 9 µM.

On to `CNC(=O)c1ccc(-n2c(N[C@@H](C)c3ccc(C(F)(F)F)cc3)nc3c(c2=O)C[C@@H](C)N(C(=O)c2ccc(Cl)c(Cl)c2)C3)cc1` (single isomer, unassigned) [Compound C413b], for which, in data set [1] (setting [5]), the EC50 came to 4.13 µM. Further, the CC50 at 3 days in data set [2] (setting [6]) came to 8.3 µM.

As for `CNC(=O)c1ccc(-n2c(N[C@H](C)c3ccc4c(c3)OCO4)nc3c(c2=O)C[C@@H](C)N(C(=O)c2ccc(Cl)c(Cl)c2)C3)cc1` (single isomer, unassigned) [Compound C414a], the EC50 in data set [1] (setting [5]) came to 0.29 µM. The CC50 at 3 days in data set [2] (setting [6]) is greater than 50 µM.

On to `CNC(=O)c1ccc(-n2c(N[C@@H](C)c3ccc4c(c3)OCO4)nc3c(c2=O)C[C@@H](C)N(C(=O)c2ccc(Cl)c(Cl)c2)C3)cc1` (single isomer, unassigned) [Compound C414b], for which, in data set [1] (setting [5]), the EC50 turned out to be 0.06 µM. Besides, the CC50 at 3 days in data set [2] (setting [6]) is greater than 50 µM.

On to `CNC(=O)c1ccc(-n2c(N[C@H](C)c3ccc(OC)c(OC)c3)nc3c(c2=O)C[C@@H](C)N(C(=O)c2ccc(Cl)c(Cl)c2)C3)cc1` (single isomer, unassigned) [Compound C415a], for which, in data set [1] (setting [5]), the EC50 amounted to 1.06 µM. In addition, the midpoint of cytotoxicity in data set [2] (setting [6]), the CC50 at 3 days, lay at 32.9 µM.
